Source: the Kinase Knowledgebase extract (Sharma et al. 2016)

Legend:
PIK3CG (human) = PIK3CG (human) (UniProt P48736); assay: Inhibition of PIK3CG Kinase Activity
PIK3CD (Human) [1] = target: PIK3CD (Human) (UniProt O00329); assay: Assessment of Human B Lymphocyte Function; details: b cells
PIK3CB (Human) = PIK3CB (Human) (UniProt P42338); assay: Inhibition of PIK3CB Kinase Activity
PIK3CA (human) = PIK3CA (human) (UniProt P42336); assay: Inhibition of PIK3CA Kinase Activity
PIK3CD (Human) [2] = target: PIK3CD (Human) (UniProt O00329); assay: Assessment of Elastase Exocytosis From Neutrophils

Chain of PIK3CB (Human) (P42338 whole entry, looked up): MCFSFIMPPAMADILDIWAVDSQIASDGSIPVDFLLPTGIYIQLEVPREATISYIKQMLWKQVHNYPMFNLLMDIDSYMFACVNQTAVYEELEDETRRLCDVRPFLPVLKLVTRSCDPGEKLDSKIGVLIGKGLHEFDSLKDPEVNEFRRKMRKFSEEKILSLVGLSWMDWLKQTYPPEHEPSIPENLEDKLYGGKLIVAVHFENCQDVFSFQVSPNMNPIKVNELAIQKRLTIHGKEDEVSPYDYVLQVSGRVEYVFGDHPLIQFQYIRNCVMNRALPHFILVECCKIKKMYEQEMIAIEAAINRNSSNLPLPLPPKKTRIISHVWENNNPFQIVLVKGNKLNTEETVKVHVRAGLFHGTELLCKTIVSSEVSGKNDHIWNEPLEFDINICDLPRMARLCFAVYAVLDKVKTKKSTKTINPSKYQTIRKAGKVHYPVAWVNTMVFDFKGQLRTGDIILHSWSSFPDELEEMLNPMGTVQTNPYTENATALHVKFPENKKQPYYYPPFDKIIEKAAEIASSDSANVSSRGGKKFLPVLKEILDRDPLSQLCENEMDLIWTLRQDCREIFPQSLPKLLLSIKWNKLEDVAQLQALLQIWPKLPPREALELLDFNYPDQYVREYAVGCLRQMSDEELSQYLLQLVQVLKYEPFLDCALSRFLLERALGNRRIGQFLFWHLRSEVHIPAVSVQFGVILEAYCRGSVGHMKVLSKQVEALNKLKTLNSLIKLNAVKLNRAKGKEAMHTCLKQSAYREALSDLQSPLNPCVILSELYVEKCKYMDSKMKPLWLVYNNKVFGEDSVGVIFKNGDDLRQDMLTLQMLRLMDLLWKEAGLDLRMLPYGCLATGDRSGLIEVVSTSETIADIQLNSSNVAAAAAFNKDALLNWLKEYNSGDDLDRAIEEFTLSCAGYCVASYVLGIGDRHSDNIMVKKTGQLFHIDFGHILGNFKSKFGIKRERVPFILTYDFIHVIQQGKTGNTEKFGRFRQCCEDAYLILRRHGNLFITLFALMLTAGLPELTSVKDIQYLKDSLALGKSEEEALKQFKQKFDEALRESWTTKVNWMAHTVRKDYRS
Chain of PIK3CG (human) (P48736 whole entry, looked up): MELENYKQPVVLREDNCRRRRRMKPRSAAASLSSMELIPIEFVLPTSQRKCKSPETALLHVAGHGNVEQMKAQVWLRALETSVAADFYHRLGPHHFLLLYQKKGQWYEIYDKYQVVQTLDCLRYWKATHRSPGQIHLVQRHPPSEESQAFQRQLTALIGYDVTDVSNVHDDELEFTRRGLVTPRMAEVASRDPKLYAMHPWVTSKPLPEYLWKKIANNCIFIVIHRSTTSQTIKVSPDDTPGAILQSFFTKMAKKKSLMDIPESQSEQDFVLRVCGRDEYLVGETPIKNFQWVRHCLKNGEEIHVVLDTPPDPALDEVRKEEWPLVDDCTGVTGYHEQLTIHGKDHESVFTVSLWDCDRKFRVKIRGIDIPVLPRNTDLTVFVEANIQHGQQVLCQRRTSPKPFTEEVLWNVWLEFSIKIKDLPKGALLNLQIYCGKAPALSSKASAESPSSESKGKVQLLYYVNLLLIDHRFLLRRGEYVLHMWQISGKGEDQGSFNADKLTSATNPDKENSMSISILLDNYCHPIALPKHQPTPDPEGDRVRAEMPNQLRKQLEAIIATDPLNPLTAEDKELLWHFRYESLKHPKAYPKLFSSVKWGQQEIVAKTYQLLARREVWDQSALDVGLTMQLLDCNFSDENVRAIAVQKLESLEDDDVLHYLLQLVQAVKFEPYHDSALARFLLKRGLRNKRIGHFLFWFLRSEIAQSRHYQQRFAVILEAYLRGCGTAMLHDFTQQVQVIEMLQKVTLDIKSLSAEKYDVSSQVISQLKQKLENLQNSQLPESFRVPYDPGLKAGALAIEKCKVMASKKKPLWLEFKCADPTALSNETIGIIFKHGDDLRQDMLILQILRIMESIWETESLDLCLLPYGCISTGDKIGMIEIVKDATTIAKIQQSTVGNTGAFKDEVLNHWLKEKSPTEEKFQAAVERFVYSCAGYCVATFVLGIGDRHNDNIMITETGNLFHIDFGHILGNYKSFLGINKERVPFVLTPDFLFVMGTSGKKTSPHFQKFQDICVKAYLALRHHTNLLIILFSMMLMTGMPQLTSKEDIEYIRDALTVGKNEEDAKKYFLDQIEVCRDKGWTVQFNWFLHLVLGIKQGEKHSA
Chain of PIK3CA (human) (P42336 whole entry, looked up): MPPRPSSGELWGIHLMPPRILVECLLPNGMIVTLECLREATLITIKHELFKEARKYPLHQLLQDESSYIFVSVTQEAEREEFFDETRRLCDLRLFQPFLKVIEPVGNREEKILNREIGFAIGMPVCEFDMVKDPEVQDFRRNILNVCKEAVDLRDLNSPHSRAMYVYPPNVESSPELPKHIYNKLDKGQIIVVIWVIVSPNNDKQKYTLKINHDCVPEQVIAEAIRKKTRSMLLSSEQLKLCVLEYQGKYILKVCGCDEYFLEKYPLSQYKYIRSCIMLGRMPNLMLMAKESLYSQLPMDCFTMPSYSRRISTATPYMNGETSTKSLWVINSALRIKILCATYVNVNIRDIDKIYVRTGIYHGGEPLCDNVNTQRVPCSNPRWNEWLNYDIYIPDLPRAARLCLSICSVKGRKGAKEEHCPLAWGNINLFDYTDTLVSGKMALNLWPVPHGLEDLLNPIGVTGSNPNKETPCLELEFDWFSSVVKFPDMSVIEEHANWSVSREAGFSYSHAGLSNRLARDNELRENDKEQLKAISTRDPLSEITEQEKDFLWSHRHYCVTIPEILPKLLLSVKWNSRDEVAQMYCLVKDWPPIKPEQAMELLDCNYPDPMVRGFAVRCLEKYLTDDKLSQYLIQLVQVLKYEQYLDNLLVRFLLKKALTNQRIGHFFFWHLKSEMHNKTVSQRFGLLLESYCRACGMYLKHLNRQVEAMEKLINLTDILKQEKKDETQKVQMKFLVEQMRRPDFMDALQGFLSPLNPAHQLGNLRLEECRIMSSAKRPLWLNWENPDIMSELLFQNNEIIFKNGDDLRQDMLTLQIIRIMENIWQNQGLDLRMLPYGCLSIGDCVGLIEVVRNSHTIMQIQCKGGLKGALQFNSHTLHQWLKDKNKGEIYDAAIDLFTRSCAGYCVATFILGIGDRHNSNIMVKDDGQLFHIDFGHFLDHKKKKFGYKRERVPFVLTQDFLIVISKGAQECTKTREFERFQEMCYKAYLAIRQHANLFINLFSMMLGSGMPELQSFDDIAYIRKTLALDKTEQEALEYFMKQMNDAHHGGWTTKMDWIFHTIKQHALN
Chain of PIK3CD (Human) (O00329 whole entry, looked up): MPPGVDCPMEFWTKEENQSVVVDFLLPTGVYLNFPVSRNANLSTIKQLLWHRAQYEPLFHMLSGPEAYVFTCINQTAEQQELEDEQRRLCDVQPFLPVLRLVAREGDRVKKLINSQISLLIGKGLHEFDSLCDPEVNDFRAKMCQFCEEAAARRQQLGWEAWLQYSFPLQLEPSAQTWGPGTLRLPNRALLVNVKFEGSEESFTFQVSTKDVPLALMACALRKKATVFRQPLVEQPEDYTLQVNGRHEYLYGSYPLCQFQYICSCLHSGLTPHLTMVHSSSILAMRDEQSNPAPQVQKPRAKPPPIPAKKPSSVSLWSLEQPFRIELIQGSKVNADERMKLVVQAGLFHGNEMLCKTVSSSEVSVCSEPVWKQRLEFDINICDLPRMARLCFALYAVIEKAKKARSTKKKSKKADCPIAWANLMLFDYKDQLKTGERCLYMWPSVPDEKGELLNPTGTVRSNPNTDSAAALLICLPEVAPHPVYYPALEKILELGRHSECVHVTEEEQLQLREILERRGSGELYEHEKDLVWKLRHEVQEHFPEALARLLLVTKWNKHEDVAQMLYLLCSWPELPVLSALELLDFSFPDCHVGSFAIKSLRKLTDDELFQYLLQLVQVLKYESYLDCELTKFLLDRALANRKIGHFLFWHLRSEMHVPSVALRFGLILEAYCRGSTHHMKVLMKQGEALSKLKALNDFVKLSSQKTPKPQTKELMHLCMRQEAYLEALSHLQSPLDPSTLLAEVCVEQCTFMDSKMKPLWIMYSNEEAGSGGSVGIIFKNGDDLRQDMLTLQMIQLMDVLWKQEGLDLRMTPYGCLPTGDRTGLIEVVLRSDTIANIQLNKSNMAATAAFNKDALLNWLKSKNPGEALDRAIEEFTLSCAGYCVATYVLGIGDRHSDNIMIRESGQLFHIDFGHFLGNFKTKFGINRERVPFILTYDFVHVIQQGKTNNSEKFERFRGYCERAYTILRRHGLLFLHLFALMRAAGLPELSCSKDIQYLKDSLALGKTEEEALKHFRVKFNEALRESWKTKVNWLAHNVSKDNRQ

IC50 (PIK3CG (human)) [nM]	EC50 (PIK3CD (Human) [1]) [nM]	IC50 (PIK3CB (Human)) [nM]	IC50 (PIK3CA (human)) [nM]	EC50 (PIK3CD (Human) [2]) [nM]	SMILES
1060	4.6	1180	9730	84	CCC(Nc1ncnc2[nH]cnc12)c1nc2ccccc2c(=O)n1-c1ccccc1 (centres undefined)
1710	30.7	3240	11200	298	CCC(Nc1ncnc2[nH]cnc12)c1nc2cccc(Cl)c2c(=O)n1-c1c(F)cccc1F (centres undefined)
1610	–	2440	18700	584	CCC(Nc1ncnc2[nH]cnc12)c1nc2cccc(C)c2c(=O)n1-c1cc(F)cc(F)c1 (centres undefined)

SMILES	IC50 (PIK3CG (human)) [nM]	EC50 (PIK3CD (Human) [1]) [nM]	IC50 (PIK3CB (Human)) [nM]	IC50 (PIK3CA (human)) [nM]	EC50 (PIK3CD (Human) [2]) [nM]
CC[C@H](Nc1ncnc2[nH]cnc12)c1nc2cccc(Cl)c2c(=O)n1-c1cc(F)cc(F)c1	804	1.6	936	7940	382
